Measurements from patent US20080108608A1, “Pyrimidines With Tie2 (Tek) Activity” (ASTRAZENECA AB, priority 2003, published 2008).

Experiments:
[1] = target: T1, Tie2 receptor tyrosine kinase (Homo sapiens, UniProt Q02763); test: In vitro receptor tyrosine kinase inhibition assay (Test (a)), ELISA based; type: biochemical; settings: recombinant human Tie2 kinase domain
T1 construct: consist of only the intracellular portion C-terminal portion of the respective receptor, within which is found the kinase domain; made in house; host or cells: baculovirus/Sf21 insect cells (or alternative equivalent); used as cleared cell lysate
Protocol: a. In Vitro Receptor Tyrosine Kinase Inhibition Assay
To test for inhibition of Tie2 receptor tyrosine kinase, compounds are evaluated in a non-cell based protein kinase assay by their ability to inhibit the protein kinase enzyme phosphorylation of a tyrosine containing polypeptide substrate in an ELISA based microtitre plate assay. In this particular case, the assay was to determine the IC50, for three different recombinant human tyrosine kinases Tie2, KDR and Flt.
To facilitate production of the tyrosine kinases, recombinant receptor genes were produced using standard molecular biology cloning and mutagenesis techniques. These recombinant proteins fragments encoded within these genes consist of only the intracellular portion C-terminal portion of the respective receptor, within which is found the kinase domain. The recombinant genes encoding the kinase domain containing fragments were cloned and expressed in standard baculovirus/Sf21 system (or alternative equivalent) […]
Constitutive kinase activity of these recombinant proteins was determined by their ability to phosphorylate a synthetic peptide (made up of a random co-polymer of Glutamic Acid, Alanine and Tyrosine in the ratio of 6:3:1). […]
The immobilised phospho-peptide product of the reaction was detected by immunological methods. […] Following extensive washing with PBS-T, HRP activity in each well of the plate was measured colorimetrically using 22′-Azino-di-[3-ethylbenzthiazoline sulfonate (6)]diammonium salt crystals ABTS (Sigma P4922—prepared as per manufactures instructions) as a substrate incubated for 30-45 minutes to allow colour development, before 100 ul of 1M H2SO4 was added to stop the reaction.
Quantification of colour development and thus enzyme activity was achieved by the measurement of absorbance at 405 nm on a Molecular Devices ThermoMax microplate reader. Kinase inhibition for a given compound was expressed as an IC50 value. […] The range of phosphorylation was calculated from the positive (vehicle plus ATP) and negative (vehicle minus ATP) control values.

[2] = target: T2, Tie2 receptor (Homo sapiens, UniProt Q02763); test: Cellular Tie2 autophosphorylation assay (Test (b)); type: cell-based; settings: Ang1 ligand stimulated whole cells, e.g. EA.hy926/B3; read-out: IC50 (μM) Test (b): Inhibition of autophosphorylation of Tie2 receptor tyrosine kinase
T2 construct: natural cell lines or primary cells which are known to express the receptor of choice; endogenous in cells; host or cells: EA.hy926/B3 cells (HUVEC named as an alternative)
Source text: b. Cellular Tie2 Autophosphorylation Assay
This assay is based on measuring the ability of compounds to inhibit autophosphorylation of the Tie2 receptor which normally leads to the production of “activated” receptor that in turn initiates the particular signal transduction pathways associated with the receptor function.
Autophosphorylation can be achieved by a number of means. It is known that expression of recombinant kinase domains in baculoviral systems can lead to the production of phosphorylated and activated receptor. It is also reported that over expression of receptors in recombinant cell lines can itself lead to receptor autophosphorylation in the absence of the ligand (Heldin C-H. 1995 Cell: 80, 213-223; Blume-J. P, Hunter T. 2001 Nature: 411, 355-65). Furthermore, there are numerous literature examples in which chimaeric receptors have been constructed. In these cases the natural, external cell surface domain of the receptor has been replaced with that of a domain which is known to be readily dimerised via the addition of the appropriate ligand (e.g. TrkA-Tie2/NGF ligand (Marron, M. B., et al., 2000 Journal of Biological Chemistry: 275:39741-39746) or C-fins-Tie-1/CSF-1 ligand (Kontos, C. D., et al., 2002 Molecular and Cellular Biology: 22, 1704-1713). Thus when the chimaeric receptor expressed in a host cell line and the respective ligand is added, this induces autophosphorylation of the chimeric receptor's kinase domain. This approach has the advantage of often allowing a known (and often easily obtained) ligand to be used instead of having to identify and isolate the natural ligand for each receptor of interest.
Naturally if the ligand is available one can use natural cell lines or primary cells which are known to express the receptor of choice and simply stimulate with ligand to achieve ligand induced phosphorylation. […]

T1 sequence (Q02763 770-1124 limits assumed): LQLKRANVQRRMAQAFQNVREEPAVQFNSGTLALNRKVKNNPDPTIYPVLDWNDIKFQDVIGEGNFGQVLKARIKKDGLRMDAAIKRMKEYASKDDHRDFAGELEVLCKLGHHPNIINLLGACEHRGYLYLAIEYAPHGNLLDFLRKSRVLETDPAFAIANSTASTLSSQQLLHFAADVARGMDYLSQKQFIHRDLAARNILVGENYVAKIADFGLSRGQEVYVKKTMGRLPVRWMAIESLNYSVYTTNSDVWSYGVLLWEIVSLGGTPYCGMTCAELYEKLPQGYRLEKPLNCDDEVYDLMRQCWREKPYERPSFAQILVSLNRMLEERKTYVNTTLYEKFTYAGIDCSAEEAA
T2 sequence (Q02763 23-1124): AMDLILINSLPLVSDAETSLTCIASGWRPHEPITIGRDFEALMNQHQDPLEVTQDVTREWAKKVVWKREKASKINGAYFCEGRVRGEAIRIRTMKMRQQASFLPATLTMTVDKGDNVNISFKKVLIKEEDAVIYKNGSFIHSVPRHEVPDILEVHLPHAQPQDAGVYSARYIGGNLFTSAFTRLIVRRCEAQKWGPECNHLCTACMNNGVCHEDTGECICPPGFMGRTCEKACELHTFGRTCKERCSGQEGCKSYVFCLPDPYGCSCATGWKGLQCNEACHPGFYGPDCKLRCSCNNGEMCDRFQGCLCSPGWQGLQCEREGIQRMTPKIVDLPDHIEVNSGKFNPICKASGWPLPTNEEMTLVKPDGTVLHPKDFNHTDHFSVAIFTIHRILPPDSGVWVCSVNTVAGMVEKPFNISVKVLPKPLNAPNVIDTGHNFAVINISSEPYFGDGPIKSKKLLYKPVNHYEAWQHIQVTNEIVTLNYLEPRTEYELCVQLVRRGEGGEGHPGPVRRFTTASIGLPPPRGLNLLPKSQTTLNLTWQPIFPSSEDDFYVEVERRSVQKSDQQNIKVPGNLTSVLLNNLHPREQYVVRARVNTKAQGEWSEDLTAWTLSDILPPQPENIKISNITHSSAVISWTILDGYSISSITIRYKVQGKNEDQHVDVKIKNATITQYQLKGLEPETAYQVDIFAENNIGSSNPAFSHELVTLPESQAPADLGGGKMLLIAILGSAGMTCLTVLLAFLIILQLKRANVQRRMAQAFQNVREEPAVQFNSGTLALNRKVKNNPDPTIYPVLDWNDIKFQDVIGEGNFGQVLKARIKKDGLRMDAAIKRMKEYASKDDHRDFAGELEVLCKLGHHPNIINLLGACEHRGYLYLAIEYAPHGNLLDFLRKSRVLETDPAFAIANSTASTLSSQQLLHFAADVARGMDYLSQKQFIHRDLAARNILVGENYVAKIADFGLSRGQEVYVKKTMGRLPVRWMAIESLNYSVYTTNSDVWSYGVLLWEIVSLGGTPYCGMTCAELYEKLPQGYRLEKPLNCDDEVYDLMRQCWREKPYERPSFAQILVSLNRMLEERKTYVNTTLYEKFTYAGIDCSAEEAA

Row | IC50 [1] | IC50 [2] | Compound
1 | 19.9 µM | 0.337 µM | Cc1cc(NC(=O)Nc2cccc(C#Cc3cnc(N)nc3)c2)on1 [Example 19, N-{3-[(2-aminopyrimidin-5-yl)ethynyl]phenyl}-N′-(3-methylisoxazol-5-yl)urea]
2 | 5.7 µM | 2.59 µM | CC(C)(C)c1cc(NC(=O)Nc2cccc(C#Cc3cnc(NCCN4CCCC4)nc3)c2)no1 [Example 33, N-(5-tert-butylisoxazol-3-yl)-N′-[3-({2-[(2-pyrrolidin-1-ylethyl)amino]pyrimidin-5-yl}ethynyl)phenyl]urea]
3 | 74.9 µM | 3.29 µM | CC(C)(C)c1nnc(NC(=O)Nc2cccc(C#Cc3cnc(NCCN4CCCC4)nc3)c2)s1 [Example 48, N-(5-tert-butyl-1,3,4-thiadiazol-2-yl)-N′-[3-({2-[(2-pyrrolidin-1-ylethyl)amino]pyrimidin-5-yl}ethynyl)phenyl]urea]
